According to PubChem BioAssay (NCI):
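The compound was tested at five concentrations on cells cultured in 96-well plates, with a 48-hour exposure period. The concentration for full growth arrest is given as TGI.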

Experiments:
Assay in all cases: NCI-60 cell line screen, 48 h
[1] = test system: MOLT-4 leukemia
[2] = test system: DU-145 prostate
[3] = test system: SF-295 CNS
[4] = test system: MCF7 breast
[5] = test system: A498 renal
[6] = test system: COLO 205 colon
[7] = test system: RPMI-8226 leukemia
[8] = test system: PC-3 prostate
[9] = test system: TK-10 renal
[10] = test system: NCI/ADR-RES ovarian
[11] = test system: KM12 colon
[12] = test system: OVCAR-5 ovarian
[13] = test system: SR leukemia
[14] = test system: CAKI-1 renal
[15] = test system: OVCAR-4 ovarian
[16] = test system: HL-60(TB) leukemia
[17] = test system: IGROV1 ovarian
[18] = test system: SF-539 CNS
[19] = test system: RXF 393 renal
[20] = test system: LOX IMVI melanoma
[21] = test system: OVCAR-8 ovarian
[22] = test system: MDA-MB-231 breast
[23] = test system: EKVX NSCLC
[24] = test system: UO-31 renal
[25] = test system: T-47D breast
[26] = test system: CCRF-CEM leukemia
[27] = test system: HOP-62 NSCLC
[28] = test system: UACC-62 melanoma
[29] = test system: MALME-3M melanoma
[30] = test system: U251 CNS
[31] = test system: NCI-H522 lung
[32] = test system: MDA-MB-435
[33] = test system: SK-MEL-28 melanoma
[34] = test system: UACC-257 melanoma
[35] = test system: SNB-19 CNS
[36] = test system: NCI-H226 lung
[37] = test system: MDA-N
[38] = test system: SW-620 colon
[39] = test system: NCI-H460 lung
[40] = test system: SK-MEL-5 melanoma
[41] = test system: SN12C renal
[42] = test system: HS 578T breast
[43] = test system: HOP-92 NSCLC
[44] = test system: HT29 colon
[45] = test system: SF-268 CNS
[46] = test system: K-562 leukemia
[47] = test system: OVCAR-3 ovarian
[48] = test system: ACHN renal
[49] = test system: HCT-15 colon
[50] = test system: 786-0 renal
[51] = test system: A549 NSCLC
[52] = test system: NCI-H23 lung
[53] = test system: M14 melanoma
[54] = test system: SK-MEL-2 melanoma
[55] = test system: HCT-116 colon
[56] = test system: SNB-75 CNS
[57] = test system: BT-549 breast
[58] = test system: SK-OV-3 ovarian
[59] = test system: HCC-2998 colon

CCCN(CCC)C(=O)c1c(N2CCN(C)CC2)c2cccnc2n2c(C)cnc12
TGI [1]: > 100 µM
TGI [2]: > 100 µM
TGI [3]: > 100 µM
TGI [4]: > 100 µM
TGI [5]: > 100 µM
TGI [6]: > 100 µM
TGI [7]: > 100 µM
TGI [8]: > 100 µM
TGI [9]: > 100 µM
TGI [10]: > 100 µM
TGI [11]: > 100 µM
TGI [12]: > 100 µM
TGI [13]: > 100 µM
TGI [14]: > 100 µM
TGI [15]: > 100 µM
TGI [16]: > 100 µM
TGI [17]: > 100 µM
TGI [18]: > 100 µM
TGI [19]: > 100 µM
TGI [20]: > 100 µM
TGI [21]: > 100 µM
TGI [22]: > 100 µM
TGI [23]: > 100 µM
TGI [24]: > 100 µM
TGI [25]: > 100 µM
TGI [26]: > 100 µM
TGI [27]: > 100 µM
TGI [28]: > 100 µM
TGI [29]: > 100 µM
TGI [30]: > 100 µM
TGI [31]: > 100 µM
TGI [32]: > 100 µM
TGI [33]: > 100 µM
TGI [34]: > 100 µM
TGI [35]: 68.1 µM
TGI [36]: > 100 µM
TGI [37]: > 100 µM
TGI [38]: 45.5 µM
TGI [39]: > 100 µM
TGI [40]: > 100 µM
TGI [41]: > 100 µM
TGI [42]: > 100 µM
TGI [43]: > 100 µM
TGI [44]: > 100 µM
TGI [45]: > 100 µM
TGI [46]: > 100 µM
TGI [47]: > 100 µM
TGI [48]: > 100 µM
TGI [49]: > 100 µM
TGI [50]: > 100 µM
TGI [51]: > 100 µM
TGI [52]: > 100 µM
TGI [53]: > 100 µM
TGI [54]: > 100 µM
TGI [55]: > 100 µM
TGI [56]: > 100 µM

O=c1[nH]c(=O)n(C2CC(O)C(CO)O2)cc1Br (stereo not given)
TGI [1]: > 100 µM
TGI [2]: > 100 µM
TGI [3]: > 100 µM
TGI [4]: > 100 µM
TGI [5]: > 100 µM
TGI [6]: > 100 µM
TGI [7]: > 100 µM
TGI [8]: > 100 µM
TGI [9]: > 100 µM
TGI [10]: > 100 µM
TGI [11]: > 100 µM
TGI [12]: > 100 µM
TGI [14]: > 100 µM
TGI [15]: > 100 µM
TGI [16]: > 100 µM
TGI [17]: > 100 µM
TGI [18]: > 100 µM
TGI [19]: > 100 µM
TGI [20]: > 100 µM
TGI [21]: > 100 µM
TGI [22]: > 100 µM
TGI [23]: > 100 µM
TGI [24]: > 100 µM
TGI [25]: > 100 µM
TGI [26]: > 100 µM
TGI [27]: > 100 µM
TGI [28]: > 100 µM
TGI [29]: > 100 µM
TGI [30]: > 100 µM
TGI [31]: > 100 µM
TGI [32]: > 100 µM
TGI [33]: > 100 µM
TGI [34]: > 100 µM
TGI [57]: > 100 µM
TGI [35]: > 100 µM
TGI [36]: > 100 µM
TGI [37]: > 100 µM
TGI [38]: > 100 µM
TGI [39]: > 100 µM
TGI [40]: > 100 µM
TGI [41]: > 100 µM
TGI [42]: > 100 µM
TGI [43]: > 100 µM
TGI [44]: > 100 µM
TGI [45]: > 100 µM
TGI [46]: > 100 µM
TGI [47]: > 100 µM
TGI [48]: > 100 µM
TGI [49]: > 100 µM
TGI [50]: > 100 µM
TGI [51]: > 100 µM
TGI [58]: > 100 µM
TGI [52]: > 100 µM
TGI [59]: > 100 µM
TGI [53]: > 100 µM
TGI [54]: > 100 µM
TGI [55]: > 100 µM
TGI [56]: > 100 µM

Nc1ccn(C2CCC(COP(=O)(O)OCC(O)COP(=O)(O)OCC3OC(n4cc(F)c(=O)[nH]c4=O)CC3O)O2)c(=O)n1 (stereo not given)
TGI [1]: > 100 µM
TGI [2]: > 100 µM
TGI [3]: > 100 µM
TGI [4]: > 100 µM
TGI [6]: > 100 µM
TGI [7]: > 100 µM
TGI [8]: > 100 µM
TGI [9]: > 100 µM
TGI [10]: > 100 µM
TGI [11]: > 100 µM
TGI [12]: > 100 µM
TGI [14]: > 100 µM
TGI [15]: > 100 µM
TGI [16]: > 100 µM
TGI [17]: > 100 µM
TGI [18]: > 100 µM
TGI [19]: > 100 µM
TGI [20]: > 100 µM
TGI [21]: > 100 µM
TGI [22]: > 100 µM
TGI [23]: > 100 µM
TGI [24]: > 100 µM
TGI [25]: > 100 µM
TGI [26]: > 100 µM
TGI [27]: > 100 µM
TGI [29]: > 100 µM
TGI [30]: > 100 µM
TGI [31]: > 100 µM
TGI [32]: > 100 µM
TGI [33]: > 100 µM
TGI [34]: > 100 µM
TGI [57]: > 100 µM
TGI [35]: > 100 µM
TGI [36]: > 100 µM
TGI [37]: > 100 µM
TGI [38]: > 100 µM
TGI [39]: > 100 µM
TGI [40]: > 21 µM
TGI [41]: > 100 µM
TGI [42]: > 100 µM
TGI [43]: 4.59 µM
TGI [44]: > 100 µM
TGI [45]: > 100 µM
TGI [46]: > 100 µM
TGI [47]: > 100 µM
TGI [48]: > 100 µM
TGI [49]: > 100 µM
TGI [50]: > 100 µM
TGI [51]: > 100 µM
TGI [58]: > 100 µM
TGI [52]: > 100 µM
TGI [59]: > 100 µM
TGI [53]: > 100 µM
TGI [54]: > 100 µM
TGI [55]: > 100 µM
TGI [56]: > 100 µM
